Measured values: patent US20140051575A1 (priority 2011, published 2014)

Tests used:
Plasmopara viticola = assay: Plasmopara test (grapevines)/preventive; assay type: in vivo; conditions: preventive spray, 10 ppm of active ingredient, evaluated 6 days after inoculation, 0% = untreated control, 100% = no disease
Method: To produce a suitable preparation of active compound, 1 part by weight of active compound is mixed with the stated amounts of solvent and emulsifier, and the concentrate is diluted with water to the desired concentration.
To test for preventive activity, young plants are sprayed with the preparation of active compound at the stated rate of application. After the spray coating has dried on, the plants are inoculated with an aqueous spore suspension of Plasmopara viticola and then remain for 1 day in an incubation cabinet at approximately 20° C. and a relative atmospheric humidity of 100%. The plant is subsequently placed for 4 days in a greenhouse at approximately 21° C. and a relative atmospheric humidity of approximately 90%. The plants are then misted and placed for 1 day in an incubation cabinet.
The test is evaluated 6 days after the inoculation. 0% means an efficacy which corresponds to that of the untreated control, while an efficacy of 100% means that no disease is observed.

[1] = Measurement of logP values by HPLC on reversed phase columns (EEC directive 79/831 Annex V.A8); assay type: physicochemical; conditions: pH 2.7, 0.1% formic acid in water / acetonitrile gradient, calibration with alkan-2-ones
Method: Measurement of logP values was performed according EEC directive 79/831 Annex V.A8 by HPLC (High Performance Liquid Chromatography) on reversed phase columns with the following methods:
Measurement of LC-MS was done at pH 2.7 with 0.1% formic acid in water and with acetonitrile (contains 0.1% formic acid) as eluent with a linear gradient from 10% acetonitrile to 95% acetonitrile.
Calibration was done with not branched alkan2-ones (with 3 to 16 carbon atoms) with known logP-values (measurement of logP values using retention times with linear interpolation between successive alkanones). lambda-maX-values were determined using UV-spectra from 200 nm to 400 nm and the peak values of the chromatographic signals.

Pythium ultimum = assay: Pythium test (cotton)/seed treatment; assay type: in vivo; conditions: 50 g/dt seed of active ingredient, greenhouse 7 days, 100% = all seedlings have emerged
Method: The test is performed under greenhouse conditions.
Cotton seeds, treated with the active compound or compound combinations, solved in N-methyl-2-pyrrolidon and diluted with water to the desired dosages, were sown in 6*6 cm pots containing 4 cm of a 1:1 mix of steamed field soil and sand.
Perlite was incubated with mycelium fragments of Pythium ultimum. 1 ml of infected perlite was scattered between the treated cotton seeds. Seeds were then covered by light expanded clay aggregate. Pots were incubated in the greenhouse 7 days at 20° C. and 80% relative humidity.
Assessment consisted of counting of emerged seedlings. 0% means an efficacy which corresponds to that of the control, while an efficacy of 100% means that all seedlings have emerged.

Phytophthora infestans = assay type: in vivo; conditions: tomato plants, preventive spray, 500 ppm of active ingredient, evaluated 7 days after inoculation; 0% = untreated control, 100% = no disease

Row | Compound | Eff. % (Plasmopara viticola) | Log P [1] | Eff. % (Pythium ultimum) | Eff. % (Phytophthora infestans)
1 | Cn1nnnc1C(=NOCc1csc(NC(=O)COCC2CC2)n1)c1ccccc1 [Example 13] | 79% | 3.04 |  | 
2 | CC(OCC1CC1)C(=O)Nc1cccc(CON=C(c2ccccc2)c2nnnn2C)n1 (stereo not shown) [Example 2] | 95% | 3.55 | 100% | 
3 | CC(OCC1CCCC1)C(=O)Nc1nc(CON=C(c2ccccc2)c2nnnn2C)cs1 (stereo not shown) [Example 19] | 91% | 4.25 |  | 100%
4 | CC(SC1CCCCC1)C(=O)Nc1nc(CON=C(c2ccccc2)c2nnnn2C)cs1 (stereo not shown) [Example 74] | 82% | 4.12 |  | 100%
5 | CC(C)CCOCC(=O)Nc1nc(CON=C(c2ccccc2)c2nnnn2C)cs1 [Example 45] | 91% | 3.8 |  | 100%
6 | Cc1nnnn1C(=NOCc1csc(NC(=O)COCC2CCC2)n1)c1ccccc1 [Example 35] | 91% | 3.59 |  | 100%
7 | Cc1nnnn1C(=NOCc1csc(NC(=O)COCC2CC2)n1)c1ccccc1 [Example 33] | 94% | 3.11 |  | 
8 | Cc1ccccc1CSCC(=O)Nc1cccc(CON=C(c2ccccc2)c2nnnn2C)n1 [Example 65] | 84% |  |  | 
9 | Cn1nnnc1C(=NOCc1csc(NC(=O)COCC2CCC2)n1)c1ccccc1 [Example 15] | 100% | 3.52 |  | 100%
10 | Cc1ccccc1CSCC(=O)Nc1nc(CON=C(c2ccccc2)n2nnnc2C)cs1 [Example 88] | 84% | 4.06 |  | 100%
11 | Cn1nnnc1C(=NOCc1cccc(NC(=O)CSCC2CC2)n1)c1ccccc1 [Example 67] | 78% | 3.51 |  | 
12 | COC(C)CC(CC(=O)Nc1cccc(CON=C(c2ccccc2)c2nnnn2C)n1)OC (stereo not shown) [Example 96] | 78% | 2.9 |  | 100%
13 | Cc1nnnn1C(=NOCc1cccc(NC(=O)C(C)OCC2CC2)n1)c1ccccc1 (stereo not shown) [Example 24] | 81% | 3.63 |  | 100%
14 | CC(OCC1CCCO1)C(=O)Nc1nc(CON=C(c2ccccc2)c2nnnn2C)cs1 (stereo not shown) [Example 60] | 85% | 3.15 |  | 100%
15 | CC(OCc1ccccc1)C(=O)Nc1nc(CON=C(c2ccccc2)c2nnnn2C)cs1 (stereo not shown) [Example 49] | 92% | 3.71 |  | 
16 | Cn1nnnc1C(=NOCc1cccc(NC(=O)COCC2CCC2)n1)c1ccccc1 [Example 4] | 80% | 3.83 |  | 97%
17 | Cc1nnnn1C(=NOCc1csc(NC(=O)C(C)OCC2CC2)n1)c1ccccc1 (stereo not shown) [Example 34] | 94% | 3.35 | 92% | 100%
18 | CC(OCC1CC1)C(=O)Nc1ccc(F)c(CON=C(c2ccccc2)c2nnnn2C)n1 (stereo not shown) [Example 9] | 89% | 3.71 |  | 100%
19 | CC(SCc1ccccc1)C(=O)Nc1nc(CON=C(c2ccccc2)c2nnnn2C)cs1 (stereo not shown) [Example 71] | 82% | 3.8 |  | 100%
20 | CC(OCC1CCC1)C(=O)Nc1nc(CON=C(c2ccccc2)c2nnnn2C)cs1 (stereo not shown) [Example 22] | 88% | 3.83 |  | 100%
21 | Cn1nnnc1C(=NOCc1csc(NC(=O)COCc2ccccc2)n1)c1ccccc1 [Example 50] | 100% | 3.37 | 93% | 100%
22 | Cn1nnnc1C(=NOCc1csc(NC(=O)COCC2CCCCC2)n1)c1ccccc1 [Example 17] | 94% | 4.29 |  | 100%
23 | CC(OCC1CCC1)C(=O)Nc1cccc(CON=C(c2ccccc2)c2nnnn2C)n1 (stereo not shown) [Example 12] | 84% | 4.16 |  | 100%

Row | Compound | Eff. % (Plasmopara viticola) | Log P [1] | Eff. % (Pythium ultimum) | Eff. % (Phytophthora infestans)
24 | Cn1nnnc1C(=NOCc1cccc(NC(=O)C2Cc3ccccc32)n1)c1ccccc1 (stereo not shown) [Example 91] | 77% | 3.58 |  | 
25 | Cn1nnnc1C(=NOCc1cccc(NC(=O)OCCCOC2CCCC2)n1)c1ccccc1 [Example 98] | 81% | 4.14 |  | 100%
26 | Cn1nnnc1C(=NOCc1cccc(NC(=O)COCc2ccccc2)n1)c1ccccc1 [Example 48] | 96% | 3.63 |  | 95%
27 | Cn1nnnc1C(=NOCc1csc(NC(=O)COCC2CCCC2)n1)c1ccccc1 [Example 16] | 90% | 3.9 |  | 97%
28 | Cn1nnnc1C(=NOCc1cccc(NC(=O)COCCC2CCCCC2)n1)c1ccccc1 [Example 10] |  | 4.98 |  | 95%
29 | Cc1nnnn1C(=NOCc1csc(NC(=O)C(C)(C)CSC2CCCCC2)n1)c1ccccc1 [Example 113] |  | 4.85 |  | 98%
30 | COC(C)CC(CC(=O)Nc1nc(CON=C(c2ccccc2)c2nnnn2C)cs1)OC (stereo not shown) [Example 103] |  | 2.78 |  | 95%
31 | Cc1nnnn1C(=NOCc1csc(NC(=O)COCC2CCCCC2)n1)c1ccccc1 [Example 37] |  | 4.36 |  | 100%
32 | Cc1nnnn1C(=NOCc1csc(NC(=O)C(C)OCC2CCC2)n1)c1ccccc1 (stereo not shown) [Example 42] | 93% | 3.9 |  | 100%
33 | Cc1nnnn1C(=NOCc1csc(NC(=O)C(C)OCC2CCCCO2)n1)c1ccccc1 (stereo not shown) [Example 62] |  | 3.69 |  | 98%
34 | Cn1nnnc1C(=NOCc1cccc(NC(=O)COCC2CCCC2)n1)c1ccccc1 [Example 5] |  | 4.24 |  | 97%
35 | Cc1nnnn1C(=NOCc1csc(NC(=O)CSCC2CC2)n1)c1ccccc1 [Example 87] |  | 3.31 |  | 100%
36 | Cc1nnnn1C(=NOCc1cccc(NC(=O)COCC2CCC2)n1)c1ccccc1 [Example 25] | 80% | 3.92 |  | 97%
37 | Cc1nnnn1C(=NOCc1cccc(NC(=O)CCSCc2ccccc2)n1)c1ccccc1 [Example 112] |  | 3.89 |  | 88%
38 | C=CCSCC(=O)Nc1nc(CON=C(c2ccccc2)c2nnnn2C)cs1 [Example 72] |  | 3.11 |  | 100%
39 | Cc1nnnn1C(=NOCc1csc(NC(=O)C(C)SCc2ccccc2)n1)c1ccccc1 (stereo not shown) [Example 82] |  | 3.85 |  | 100%
40 | Cn1nnnc1C(=NOCc1csc(NC(=O)CSCc2cccs2)n1)c1ccccc1 [Example 69] |  | 3.46 |  | 95%
41 | CC(COCc1ccccc1)C(=O)Nc1nc(CON=C(c2ccccc2)c2nnnn2C)cs1 (stereo not shown) [Example 104] |  | 3.65 |  | 100%
42 | Cn1nnnc1C(=NOCc1cccc(NC(=O)CCSCc2ccccc2)n1)c1ccccc1 [Example 101] |  | 3.83 |  | 90%
43 | Cn1nnnc1C(=NOCc1csc(NC(=O)COCC2CCCCO2)n1)c1ccccc1 (stereo not shown) [Example 57] |  | 3.25 |  | 95%
44 | Cn1nnnc1C(=NOCc1cccc(NC(=O)COCC2CCCCC2)n1)c1ccccc1 [Example 6] |  | 4.63 |  | 95%
45 | CC(OCC1CC1)C(=O)Nc1nc(CON=C(c2ccccc2)c2nnnn2C)cs1 (stereo not shown) [Example 14] | 97% | 3.29 | 100% | 100%
46 | Cc1nnnn1C(=NOCc1cccc(NC(=O)CSC2CCCCC2)n1)c1ccccc1 [Example 79] |  | 4.26 |  | 100%
